PubChem BioAssay (NCI)
“And” between values parts separate entries of the source, which are not always exact repeats. Equal values may be shown once.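 Exposure lasted 48 hours, with cells grown in 96-well plates and compounds tested at five concentrations. GI50 is the concentration that inhibits growth by half. TGI: concentration producing complete growth inhibition.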

system: OVCAR-4 ovarian; assay: DTP human tumour cell line panel, 48 h

How did the GI50 turn out when C=CCOc1c(Br)cc(Br)cc1Br was run?
The GI50 was 13.6 µM.

What about the TGI of the same molecule?
Its TGI is 39.9 µM.

Which TGI does the source give for Cn1c(N)nc2c(nc(OCc3ccccc3)n2C2OC(CO)C(O)C2O)c1=O (stereo not given) here?
Its TGI is > 100 µM.

Which results are given for CC(=O)n1c(-c2ccc(Cl)cc2)nc2c(c1=O)C(c1ccc(Cl)cc1)c1sc3c(Cl)cccc3c1O2 (stereo not given)?
GI50: 0.696 µM; TGI: 4.25 µM

For COc1cc(/C=C2\CC3C4CC=C5CC(N6CCCC6)CC[C@]5(C)C4CC[C@]3(C)C2OC(C)=O)ccc1OCCN1CCCC1 (stereo not given in full), which GI50 is on record?
Its GI50 is 2.41 µM.

What about the TGI of the same molecule?
The TGI was 5.74 µM.

COc1ccccc1C(=O)c1ccc2ccccc2c1 was tested. Which TGI did it give?
Its TGI is > 100 µM.

What does the source list for CS(=O)(=O)Nc1ccc(-c2ccc3c(NC(=O)C4CC4)n[nH]c3c2)cc1?
GI50: 7.2 µM; TGI: > 25 µM

With C=C1C(=O)O[C@H]2[C@H]1CC/C(COC(=O)c1cc3cc(OC)ccc3[nH]1)=C\CC[C@@]1(C)O[C@@H]21 as the molecule, how does the GI50 read?
Its GI50 is 1.63 µM.

And the TGI?
The TGI was 3.24 µM.

With COCC(=O)OC1CCn2c1nc1c2C(=O)C(C)=C(NC(C)=O)C1=O (stereo not given) as the molecule, how does the GI50 read?
Its GI50 is 1.43 µM.

What about the TGI of the same molecule?
Its TGI is 2.79 µM and 4.25 µM.

With COc1ccc(C2C(C#N)=C(N)OC3=C2CCCc2ccc(F)cc23)cc1OC (stereo not given) as the molecule, how does the GI50 read?
Its GI50 is 23 µM.

And the TGI?
Its TGI is 68 µM.

For COC(=O)c1c(O)ccc2[nH]c(C)c(C#N)c12, which GI50 is on record?
Its GI50 is > 100 µM.

And the TGI?
The TGI was > 100 µM.

How did the GI50 turn out when COc1ccc2c(c1)C=CC(C#N)N2C(=O)c1ccccc1 (stereo not given) was run?
Its GI50 is 0.0283 µM.

What about the TGI of the same molecule?
The TGI was > 100 µM.

system: SK-MEL-28 melanoma; assay: DTP human tumour cell line panel, 48 h

What does the source list for C[C@H]1CCC/C=C/[C@@H]2C[C@H](N)C[C@H]2[C@H](O)/C=C/C(=O)O1?
GI50: > 100 µM; TGI: > 100 µM

Cc1sc(C)c(-c2ccc(CO)o2)c1-c1ccc(CO)o1 was tested. Which GI50 did it give?
The GI50 was > 100 µM.

What about the TGI of the same molecule?
The TGI was > 100 µM.

For COc1ccc(-c2cc(-c3cc(Cl)ccc3Cl)nc3nc(=S)[nH]c(N)c23)cc1, which GI50 is on record?
The GI50 was 99.3 µM.

And the TGI?
Its TGI is > 100 µM.

For CC1=C(C)C(=O)O[C@@H]([C@](C)(O)[C@]2(O)CC[C@@]3(O)[C@@H]4C[C@H]5O[C@]56CC=CC(=O)[C@]6(C)[C@H]4CC[C@]23C)C1, which GI50 is on record?
The GI50 was 0.233 µM.

And the TGI?
Its TGI is 1.92 µM.

Which results are given for CNC(=O)c1ccc(-c2cnc3ncc(Cc4ccc5ncccc5c4)n3n2)cc1F?
GI50: > 100 µM; TGI: > 100 µM

COc1ccc2c(-c3cc4ccccc4o3)cc(=O)oc2c1 was tested. Which TGI did it give?
The TGI was > 100 µM.

Which results are given for O=C(Nc1cc(-c2ccccc2)[nH]n1)c1ccc(Cl)cc1?
GI50: > 100 µM; TGI: > 100 µM

Which results are given for CCCSc1cc(Cl)nc(N)n1?
GI50: > 100 µM; TGI: > 100 µM

How did the GI50 turn out when CN1CCN(Cc2ccc(NC(=O)c3ccc(C(C)(C)C)c(C#Cc4cnc5cccnn45)c3)cc2C(F)(F)F)CC1 was run?
The GI50 was 1.93 µM.

What about the TGI of the same molecule?
The TGI was 3.73 µM.

Which results are given for C=CC(=O)N1CCN(c2ncnc3c(F)c(-c4c(O)cccc4F)c(Cl)cc23)CC1?
GI50: 13.3 µM; TGI: 26 µM

What does the source list for C=CCOc1c(Br)cc(Br)cc1Br?
GI50: 75.5 µM; TGI: > 100 µM

Which TGI does the source give for Cn1c(N)nc2c(nc(OCc3ccccc3)n2C2OC(CO)C(O)C2O)c1=O (stereo not given) here?
The TGI was > 100 µM.

With CC(=O)n1c(-c2ccc(Cl)cc2)nc2c(c1=O)C(c1ccc(Cl)cc1)c1sc3c(Cl)cccc3c1O2 (stereo not given) as the molecule, how does the GI50 read?
Its GI50 is 1.1 µM.

And the TGI?
The TGI was 3.15 µM.

Which GI50 does the source give for COc1cc(/C=C2\CC3C4CC=C5CC(N6CCCC6)CC[C@]5(C)C4CC[C@]3(C)C2OC(C)=O)ccc1OCCN1CCCC1 (stereo not given in full) here?
Its GI50 is 2.51 µM.

What about the TGI of the same molecule?
Its TGI is 5.42 µM.

COc1ccccc1C(=O)c1ccc2ccccc2c1 was tested. Which TGI did it give?
The TGI was > 100 µM.

Which results are given for CS(=O)(=O)Nc1ccc(-c2ccc3c(NC(=O)C4CC4)n[nH]c3c2)cc1?
GI50: > 25 µM; TGI: > 25 µM

What does the source list for C=C1C(=O)O[C@H]2[C@H]1CC/C(COC(=O)c1cc3cc(OC)ccc3[nH]1)=C\CC[C@@]1(C)O[C@@H]21?
GI50: 1.23 µM; TGI: 2.61 µM

How did the TGI turn out when COCC(=O)OC1CCn2c1nc1c2C(=O)C(C)=C(NC(C)=O)C1=O (stereo not given) was run?
The TGI was 28.6 µM.

COc1ccc(C2C(C#N)=C(N)OC3=C2CCCc2ccc(F)cc23)cc1OC (stereo not given) was tested. Which GI50 did it give?
Its GI50 is 24.5 µM.

What about the TGI of the same molecule?
The TGI was > 62.4 µM.

COC(=O)c1c(O)ccc2[nH]c(C)c(C#N)c12 was tested. Which GI50 did it give?
The GI50 was 65.9 µM.

What about the TGI of the same molecule?
Its TGI is > 100 µM.

For COc1ccc2c(c1)C=CC(C#N)N2C(=O)c1ccccc1 (stereo not given), which TGI is on record?
The TGI was > 100 µM.

system: SNB-19 CNS; assay: DTP human tumour cell line panel, 48 h

For C[C@H]1CCC/C=C/[C@@H]2C[C@H](N)C[C@H]2[C@H](O)/C=C/C(=O)O1, which GI50 is on record?
Its GI50 is > 100 µM.

And the TGI?
Its TGI is > 100 µM.

With Cc1sc(C)c(-c2ccc(CO)o2)c1-c1ccc(CO)o1 as the molecule, how does the GI50 read?
Its GI50 is > 100 µM.

And the TGI?
The TGI was > 100 µM.

How did the GI50 turn out when COc1ccc(-c2cc(-c3cc(Cl)ccc3Cl)nc3nc(=S)[nH]c(N)c23)cc1 was run?
Its GI50 is 58.1 µM.

And the TGI?
The TGI was > 100 µM.

Which GI50 does the source give for CC1=C(C)C(=O)O[C@@H]([C@](C)(O)[C@]2(O)CC[C@@]3(O)[C@@H]4C[C@H]5O[C@]56CC=CC(=O)[C@]6(C)[C@H]4CC[C@]23C)C1 here?
Its GI50 is 0.395 µM.

What about the TGI of the same molecule?
Its TGI is 13.7 µM.

Which results are given for CNC(=O)c1ccc(-c2cnc3ncc(Cc4ccc5ncccc5c4)n3n2)cc1F?
GI50: > 100 µM; TGI: > 100 µM

Which TGI does the source give for COc1ccc2c(-c3cc4ccccc4o3)cc(=O)oc2c1 here?
The TGI was > 100 µM.

For O=C(Nc1cc(-c2ccccc2)[nH]n1)c1ccc(Cl)cc1, which GI50 is on record?
Its GI50 is 74.2 µM.

And the TGI?
The TGI was > 100 µM.

With CCCSc1cc(Cl)nc(N)n1 as the molecule, how does the GI50 read?
Its GI50 is > 100 µM.

And the TGI?
Its TGI is > 100 µM.

With CN1CCN(Cc2ccc(NC(=O)c3ccc(C(C)(C)C)c(C#Cc4cnc5cccnn45)c3)cc2C(F)(F)F)CC1 as the molecule, how does the GI50 read?
The GI50 was 2.1 µM.

What about the TGI of the same molecule?
Its TGI is 4.14 µM.

With C=CC(=O)N1CCN(c2ncnc3c(F)c(-c4c(O)cccc4F)c(Cl)cc23)CC1 as the molecule, how does the GI50 read?
Its GI50 is 14 µM.

And the TGI?
Its TGI is 27.3 µM.

Which GI50 does the source give for C=CCOc1c(Br)cc(Br)cc1Br here?
The GI50 was 17.4 µM.

And the TGI?
Its TGI is > 100 µM.

How did the TGI turn out when Cn1c(N)nc2c(nc(OCc3ccccc3)n2C2OC(CO)C(O)C2O)c1=O (stereo not given) was run?
The TGI was > 100 µM.

How did the GI50 turn out when CC(=O)n1c(-c2ccc(Cl)cc2)nc2c(c1=O)C(c1ccc(Cl)cc1)c1sc3c(Cl)cccc3c1O2 (stereo not given) was run?
Its GI50 is 0.469 µM.

What about the TGI of the same molecule?
Its TGI is 1.98 µM.

For COc1cc(/C=C2\CC3C4CC=C5CC(N6CCCC6)CC[C@]5(C)C4CC[C@]3(C)C2OC(C)=O)ccc1OCCN1CCCC1 (stereo not given in full), which GI50 is on record?
The GI50 was 5.73 µM.

And the TGI?
Its TGI is 22.8 µM.

For COc1ccccc1C(=O)c1ccc2ccccc2c1, which TGI is on record?
The TGI was 78.4 µM.

Which results are given for CS(=O)(=O)Nc1ccc(-c2ccc3c(NC(=O)C4CC4)n[nH]c3c2)cc1?
GI50: > 25 µM; TGI: > 25 µM

What does the source list for C=C1C(=O)O[C@H]2[C@H]1CC/C(COC(=O)c1cc3cc(OC)ccc3[nH]1)=C\CC[C@@]1(C)O[C@@H]21?
GI50: 1.57 µM; TGI: 3.2 µM

For COCC(=O)OC1CCn2c1nc1c2C(=O)C(C)=C(NC(C)=O)C1=O (stereo not given), which TGI is on record?
The TGI was 40.5 µM.

With COc1ccc(C2C(C#N)=C(N)OC3=C2CCCc2ccc(F)cc23)cc1OC (stereo not given) as the molecule, how does the GI50 read?
Its GI50 is 30.2 µM.

And the TGI?
Its TGI is > 82.4 µM.

For COC(=O)c1c(O)ccc2[nH]c(C)c(C#N)c12, which GI50 is on record?
The GI50 was 77.7 µM.

And the TGI?
The TGI was > 100 µM.

How did the GI50 turn out when COc1ccc2c(c1)C=CC(C#N)N2C(=O)c1ccccc1 (stereo not given) was run?
Its GI50 is < 0.01 µM.

What about the TGI of the same molecule?
The TGI was > 100 µM.
